Reference: paper PMC6458850, “CXXC5 mediates growth plate senescence and is a target for enhancement of longitudinal bone growth” (Life Science Alliance, 2019)

Tested on: C28/I2 cells
Test: CXXC5/β-catenin expression and chondrogenic markers in C28/I2 cells
Type: cell-based, human
Procedure: Figure 2. The effects of estrogen on CXXC5 expression and the mediation of growth plate senescence. (A) Immunoblotting (upper) and quantitative analyses (mean ± SEM, n = 3) (lower) in C28/I2 cells treated with 100 nM E2 (17β-estradiol) for 0, 1, 3, 6, 24, 48, or 72 h. (B) Immunocytochemical staining (left) and quantitative analyses of the fluorescent intensity (mean ± SEM, n = 3; t test, **P < 0.005 and ***P < 0.0005) (right) in C28/I2 cells treated with 100 nM E2 for 40 h. Scale bars, 100 μm. (C–E) Tibial organ cultures (E15.5) incubated with 100 nM E2 for 6 d. Representative images at 6 d (C, left) and quantitative analyses of the growth changes (mean ± SEM, n = 5; t test, ***P < 0.0005) (C, right). Scale bar, 1 mm. H&E staining (D, left) and quantification of each zone height (mean ± SEM, n = 5; t test, *P < 0.05 and **P < 0.005) (D, right) in the growth plate. Scale bar, 200 μm. IHC analyses of β-catenin and CXXC5 (E). Scale bars, 50 μm. (F) 3-wk-old Cxxc5^+/+ and Cxxc5^−/− mice were treated with E2 cypionate (70 μg/kg) by i.m. injection once a week for 3 wk (n = 3–4). Representative images of H&E staining and IHC analyses for BrdU, β-catenin, and CXXC5 in the growth plates of proximal tibiae are shown. The area within the dashed lines indicates the growth plate zone. Black and white scale bars, 50 μm. Yellow scale bar, 20 μm. RZ, resting zone; PZ, proliferative zone; HZ, hypertrophic zone.
Figure S7. The effects of KY19382 on chondrocyte proliferation and differentiation. (A) ATDC5 cells treated with 0.01 or 0.1 μM concentrations of KY19382 were incubated for 48 h followed by treatment with 50 μM BrdU for 12 h before harvesting. BrdU incorporation was visualized by immunofluorescent staining using a specific BrdU antibody (left). BrdU-positive cells were quantified (mean ± SEM, n = 3; ANOVA, P = 7.8 × 10^−5; Tukey’s post-hoc test, *P < 0.05 and ***P < 0.0005) (right). Scale bar, 100 μm. (B) qRT-PCR analyses of mRNA levels of chondrogenic differentiation markers in ATDC5 cells incubated with 0.1 μM KY19382 for 3 d in three-dimensional alginate beads after transfection with control siRNA or Ctnnb1 siRNA (mean ± SEM, n = 3; t test, *P < 0.05, **P < 0.005, and ***P < 0.0005). (C) qRT-PCR analyses of mRNA levels of chondrogenic differentiation markers in C28/I2 cells incubated with 1 μM KY19382 for 3 d in three-dimensional alginate beads (mean ± SEM, n = 3; t test, *P < 0.05 and ***P < 0.0005). n.s., no significance.
The mouse chondrogenic cell line, ATDC5, was obtained from the RIKEN Cell Bank. The human juvenile costal chondrocyte cell line, C28/I2, was provided by Dr. W U Kim (Catholic University, Korea). HEK293-TOP cells (HEK293 cells containing the chromosomally incorporated TOPFlash gene) were provided by Dr. S Oh (Kuk Min University, Korea). […]

## CON=C1C(=C2C(=O)Nc3cc(Cl)c(Cl)cc32)Nc2ccccc21 [KY19382, 5,6-dichloroindirubin-3′-methoxime]
1 μM, 3 d, alginate beads
  mRNA levels of chondrogenic markers: up-regulated

## C[C@]12CC[C@@H]3c4ccc(O)cc4CC[C@H]3[C@@H]1CC[C@@H]2O [E2, 17β-estradiol]
100 nM
  time of maximal CXXC5 level: 24 h
100 nM, 0-72 h
  CXXC5 expression: induced
100 nM, after 24 h
  β-catenin level: reduced
